The values below come from US12227482B2, “Compounds and compositions for the treatment of cancer” (The Regents of the University of California, priority 2016, dated 2025).

Molecules are shown by their SMILES.

Holding throughout (assay type): cell-based
In one assay the test system is A549 cells. The assay is described as follows: Cell viability (CellTiter-Glo ATP content) in A549 cells. The settings on record: Homo sapiens, A549, 72 h, 72 hours treatment, cell survival by CellTiter-Glo, 2% fetal bovine serum. Here is the method: (§1) Logarithmically growing A549, LOX and MelJuSo cells (ATCC) were plated in antibiotic-free RPMI medium (Coming) supplemented with 2% fetal bovine serum (Gemini Bio-products) at a density of 5,000 cells per well in clear-bottom 96-well plates. The next day cells were treated (triplicates) with increasing doses of a compound of the present disclosure (dissolved in DMSO) and DMSO vehicle controls (final DMSO concentration of 0.5%) for 72 hours and subsequently assessed for cell viability by measuring ATP content with CellTiter-Glo Luminescent Cell Viability Assay (Promega). Signal intensity was measured on a Glomax™ 96 Microplate Luminometer (Promega) and percent cell survival was calculated based on the reading of vehicle control cells set as 100%.
A general note: ATP-based viability assays read luminescence as a measure of living cells.

A further assay concerns LOX cells. The assay can be described thus: Cell viability (CellTiter-Glo ATP content) in LOX cells. The settings on record: LOX, 72 h, 72 hours treatment, cell survival by CellTiter-Glo, 2% fetal bovine serum. Here is the method:
as §1

Another assay relates to MelJuSo cells. The assay is described as follows: Cell viability (CellTiter-Glo ATP content) in MelJuSo cells. The settings on record: Homo sapiens, MEL-JUSO, 72 hours treatment, cell survival by CellTiter-Glo, 2% fetal bovine serum. As to the method: as §1

What is called IC50 is the concentration at which inhibition is half-maximal. Regarding `CC(C)(CO)CCCNC(=O)C1(C)C(c2cccs2)C(c2ccc(F)cc2)=NN1c1ccccc1` (stereo not drawn) [Compound 20, 3-(4-fluorophenyl)-N-(5-hydroxy-4,4-dimethylpentyl)-5-methyl-1-phenyl-4-(thiophen-2-yl)-4,5-dihydro-1H-pyrazole-5-carboxamide], the IC50 with A549 cells lay within 0.5 to 1 µM; in the assay with LOX cells it was 0.5 to 1 µM; with MelJuSo cells, 0.25 to 0.5 µM.
For the molecule `CC(C)(CO)CCCNC(=O)C1(C)C(c2ccncc2)C(c2ccc(F)cc2)=NN1c1ccccc1` (stereo not drawn) [Compound 21, 3-(4-fluorophenyl)-N-(5-hydroxy-4,4-dimethylpentyl)-5-methyl-1-phenyl-4-(pyridin-4-yl)-4,5-dihydro-1H-pyrazole-5-carboxamide], the IC50 in the assay with A549 cells, in the assay on LOX cells and in the assay on MelJuSo cells was more than 2 µM in each case.
Consider `CCCCC1C(c2ccc(F)cc2)=NN(c2ccc(F)cc2Cl)C1(C)C(=O)NCCCC(C)(C)CO` (stereo not drawn) [Compound 22, 4-butyl-1-(2-chloro-4-fluorophenyl)-3-(4-fluorophenyl)-N-(5-hydroxy-4,4-dimethylpentyl)-5-methyl-4,5-dihydro-1H-pyrazole-5-carboxamide], for which the concentration for half-maximal inhibition (IC50) in the assay on A549 cells, with LOX cells and in the assay on MelJuSo cells was more than 2 µM throughout.
Turning to `CCCCC1C(c2ccc(F)cc2)=NN(c2ccc(Cl)cc2F)C1(C)C(=O)NCCCC(C)(C)CO` (stereo not drawn) [Compound 23, 4-butyl-1-(4-chloro-2-fluorophenyl)-3-(4-fluorophenyl)-N-(5-hydroxy-4,4-dimethylpentyl)-5-methyl-4,5-dihydro-1H-pyrazole-5-carboxamide], the IC50 in the assay on A549 cells fell in the range of 0.5 to 1 µM; with LOX cells it was 0.5 to 1 µM; with MelJuSo cells, 0.25 to 0.5 µM.
For `CCCCC1C(c2ccc(F)cc2)=NN(c2ccc(F)cc2F)C1(C)C(=O)NCCCN(C)C` (stereo not drawn) [Compound 24, 4-butyl-1-(2,4-difluorophenyl)-N-(3-(dimethylamino)propyl)-3-(4-fluorophenyl)-5-methyl-4,5-dihydro-1H-pyrazole-5-carboxamide], the IC50 in the assay on A549 cells, in the assay on LOX cells and in the assay with MelJuSo cells was more than 2 µM in each case.
Turning to `CCCCC1C(c2ccc(F)cc2)=NN(c2ccc(F)cc2F)C1(C)C(=O)NCCCCOC` (stereo not drawn) [Compound 25, 4-butyl-1-(2,4-difluorophenyl)-3-(4-fluorophenyl)-N-(4-methoxybutyl)-5-methyl-4,5-dihydro-1H-pyrazole-5-carboxamide], the values for the IC50 with A549 cells, in the assay on LOX cells and with MelJuSo cells were more than 2 µM, more than 2 µM and 1 to 2 µM, respectively.
In the case of `CCCCC1C(c2ccc(F)cc2)=NN(c2ccc(F)cc2F)C1(C)C(=O)N(C)CCCOC` (stereo not drawn) [Compound 26, 4-butyl-1-(2,4-difluorophenyl)-3-(4-fluorophenyl)-N-(3-methoxypropyl)-N,5-dimethyl-4,5-dihydro-1H-pyrazole-5-carboxamide], the IC50 with A549 cells, in the assay on LOX cells and in the assay with MelJuSo cells was more than 2 µM each time.
Take `CCCCC1C(c2ccc(F)cc2)=NN(c2ccc(C(F)(F)F)cc2)C1(C)C(=O)NCCCC(C)(C)CO` (stereo not drawn) [Compound 28, 4-butyl-3-(4-fluorophenyl)-N-(5-hydroxy-4,4-dimethylpentyl)-5-methyl-1-(4-(trifluoromethyl)phenyl)-4,5-dihydro-1H-pyrazole-5-carboxamide]: the IC50 is more than 2 µM in the assay with A549 cells, 1 to 2 µM in the assay on LOX cells and 1 to 2 µM with MelJuSo cells.
As to `CCCCC1C(c2ccc(F)cc2)=NN(c2ccc(Cl)cc2C)C1(C)C(=O)NCCCC(C)(C)CO` (stereo not drawn) [Compound 29, 4-butyl-1-(4-chloro-2-methylphenyl)-3-(4-fluorophenyl)-N-(5-hydroxy-4,4-dimethylpentyl)-5-methyl-4,5-dihydro-1H-pyrazole-5-carboxamide], the IC50 with A549 cells, in the assay on LOX cells and with MelJuSo cells was more than 2 µM in each case.
As for `CCCCC1C(c2ccc(F)cc2)=NN(c2ccc(Cl)cc2C)C1(C)C(=O)NCCCOC` (stereo not drawn) [Compound 30, 4-butyl-1-(4-chloro-2-methylphenyl)-3-(4-fluorophenyl)-N-(3-methoxypropyl)-5-methyl-4,5-dihydro-1H-pyrazole-5-carboxamide], the IC50 in the assay with A549 cells, with LOX cells and with MelJuSo cells was more than 2 µM each time.
As to `CCCCC1C(c2ccc(F)cc2)=NN(c2ccc(F)cc2F)C1(C)C(=O)NCCC(=O)OC` (stereo not drawn) [Compound 31, methyl 3-(4-butyl-1-(2,4-difluorophenyl)-3-(4-fluorophenyl)-5-methyl-4,5-dihydro-1H-pyrazole-5-carboxamido)propanoate], the values for the IC50 in the assay on A549 cells, with LOX cells and in the assay on MelJuSo cells were 1 to 2 µM, 1 to 2 µM and 0.5 to 1 µM, respectively.
For `CCCCC1C(c2ccc(F)cc2)=NN(c2ccc(F)cc2F)C1(C)C(=O)NCCOCC` (stereo not drawn) [Compound 32, 4-butyl-1-(2,4-difluorophenyl)-N-(2-ethoxyethyl)-3-(4-fluorophenyl)-5-methyl-4,5-dihydro-1H-pyrazole-5-carboxamide], the IC50 in the assay on A549 cells lay within 0.5 to 1 µM; in the assay with LOX cells it was 0.5 to 1 µM; with MelJuSo cells, 0.25 to 0.5 µM.
`CCCCC1C(c2ccc(F)cc2)=NN(c2ccccc2)C1(C)C(=O)NCCCCCO` (stereo not drawn) [Compound 33, 4-butyl-3-(4-fluorophenyl)-N-(5-hydroxypentyl)-5-methyl-1-phenyl-4,5-dihydro-1H-pyrazole-5-carboxamide]: the IC50 with A549 cells is more than 2 µM; in the assay on LOX cells it was 1 to 2 µM; in the assay on MelJuSo cells it was 0.5 to 1 µM.
Taken in the same sequence, the figures for `CCCCC1C(c2ccc(F)cc2)=NN(c2ccccc2)C1(C)C(=O)NCCCCCCO` (stereo not drawn) [Compound 34, 4-butyl-3-(4-fluorophenyl)-N-(6-hydroxyhexyl)-5-methyl-1-phenyl-4,5-dihydro-1H-pyrazole-5-carboxamide] were more than 2 µM, 0.5 to 1 µM and 0.5 to 1 µM.
The like results for `CCCCC1C(c2ccc(F)cc2)=NN(c2ccccc2)C1(C)C(=O)NCCCCO` (stereo not drawn) [Compound 35, 4-butyl-3-(4-fluorophenyl)-N-(4-hydroxybutyl)-5-methyl-1-phenyl-4,5-dihydro-1H-pyrazole-5-carboxamide] were, in that order, more than 2 µM, 1 to 2 µM and 1 to 2 µM.
Consider `CCCCC1C(c2ccc(F)cc2)=NN(c2ccccc2)C1(C)C(=O)NCc1ccc(O)cc1` (stereo not drawn) [Compound 36, 4-butyl-3-(4-fluorophenyl)-N-(4-hydroxybenzyl)-5-methyl-1-phenyl-4,5-dihydro-1H-pyrazole-5-carboxamide], for which the IC50 was more than 2 µM in the assay on A549 cells, more than 2 µM with LOX cells and 1 to 2 µM with MelJuSo cells.
On to `CCCCC1C(c2ccc(F)cc2)=NN(c2ccccc2)C1(C)C(=O)NC(C)(C)CO` (stereo not drawn) [Compound 37, 4-butyl-3-(4-fluorophenyl)-N-(1-hydroxy-2-methylpropan-2-yl)-5-methyl-1-phenyl-4,5-dihydro-1H-pyrazole-5-carboxamide], for which the IC50 in the assay with A549 cells, in the assay on LOX cells and in the assay on MelJuSo cells was more than 2 µM each time.
As for `CCCCC1C(c2ccc(F)cc2)=NN(c2ccccc2)C1(C)C(=O)NCCc1ccc(O)cc1` (stereo not drawn) [Compound 38, 4-butyl-3-(4-fluorophenyl)-N-(4-hydroxyphenethyl)-5-methyl-1-phenyl-4,5-dihydro-1H-pyrazole-5-carboxamide], the IC50 in the assay on A549 cells is more than 2 µM; with LOX cells, more than 2 µM; with MelJuSo cells it was 0.5 to 1 µM.
As to `CCCCC1C(c2ccc(F)cc2)=NN(c2ccccc2)C1(C)C(=O)NCc1cccc(Cl)c1` (stereo not drawn) [Compound 39, 4-butyl-N-(3-chlorobenzyl)-3-(4-fluorophenyl)-5-methyl-1-phenyl-4,5-dihydro-1H-pyrazole-5-carboxamide], the IC50 with A549 cells, in the assay with LOX cells and in the assay on MelJuSo cells was more than 2 µM in each case.
Regarding `CCCCC1C(c2ccc(F)cc2)=NN(c2ccccc2)C1(C)C(=O)NCc1ccc(Cl)c(Cl)c1` (stereo not drawn) [Compound 40, 4-butyl-N-(3,4-dichlorobenzyl)-3-(4-fluorophenyl)-5-methyl-1-phenyl-4,5-dihydro-1H-pyrazole-5-carboxamide], the IC50 in the assay on A549 cells, with LOX cells and with MelJuSo cells was more than 2 µM in each case.
As to `CCCCC1C(c2ccc(F)cc2)=NN(c2ccccc2)C1(C)C(=O)NCc1cc(Cl)cc(Cl)c1` (stereo not drawn) [Compound 41, 4-butyl-N-(3,5-dichlorobenzyl)-3-(4-fluorophenyl)-5-methyl-1-phenyl-4,5-dihydro-1H-pyrazole-5-carboxamide], the figures for the IC50 with A549 cells, in the assay with LOX cells and in the assay with MelJuSo cells were more than 2 µM, more than 2 µM and 1 to 2 µM, respectively.
As to `CCCCC1C(c2ccc(F)cc2)=NN(c2ccccc2)C1(C)C(=O)N[C@@H](C)c1ccccc1` (stereo partly drawn) [Compound 42, 4-butyl-3-(4-fluorophenyl)-5-methyl-1-phenyl-N-((S)-1-phenylethyl)-4,5-dihydro-1H-pyrazole-5-carboxamide], the IC50 in the assay on A549 cells, in the assay with LOX cells and with MelJuSo cells was more than 2 µM each time.
On to `CCCCC1C(c2ccc(F)cc2)=NN(c2ccccc2)C1(C)C(=O)N[C@H](C)c1ccccc1` (stereo partly drawn) [Compound 43, 4-butyl-3-(4-fluorophenyl)-5-methyl-1-phenyl-N-((R)-1-phenylethyl)-4,5-dihydro-1H-pyrazole-5-carboxamide], for which the IC50 with A549 cells, in the assay with LOX cells and with MelJuSo cells was more than 2 µM each time.
`CCCCC1C(c2ccc(F)cc2)=NN(c2ccccc2)C1(C)C(=O)NCc1ccccc1OC` (stereo not drawn) [Compound 44, 4-butyl-3-(4-fluorophenyl)-N-(2-methoxybenzyl)-5-methyl-1-phenyl-4,5-dihydro-1H-pyrazole-5-carboxamide]: the IC50 in the assay with A549 cells, with LOX cells and with MelJuSo cells was more than 2 µM in each case.
